Tests used:
splenocytes = assay: Tumor antigen-specific IFN-γ production in splenocytes (Trp2, GP100 & Tyr peptides); assay type: in vivo, mice; settings: two IT doses, day 4, FIG. 13G
Protocol: FIG. 13B provides representative H&E stained images from PBS, CDN2 (20 μg), and exoCDN2 (0.12 μg) treated samples. FIG. 13C is a table showing the number of complete responders by histopathological analysis. […] FIG. 13F is a graphical representation of tumor growth after CD8 T cell depletion in B16F10 tumor bearing mice following administration of the IgG (10 mg/kg) or anti-CD8 antibody (10 mg/kg) intraperitoneally, one day before IT injection (n=5 per group). Blue arrows indicate intraperitoneal injection days (FIG. 13F). […] Data are presented as means±s.e.m.
We next evaluated the capacity of exoSTING to induce systemic, antigen specific T cell responses in the B16F10 tumor model. Several tumor-associated CD8-dependent antigens have been identified as dominant antigens from B16F10 tumor cells (Kreiter et al., Nature 520, 692-696 (2015), which is incorporated by reference herein in its entirety).

human PBMC = assay: IFN-β production in human PBMC supernatant; assay type: cell-based; settings: FIG. 12A
Protocol: We compared the activity of co-administered exosomes and free CDN with exoSTING in in vitro PBMC assays.
These populations of exosomes were next examined for their capacity activate STING pathway as measured by IFN-β production. […] These CDN-loaded exosomes were assayed in vitro for their potential to induce IFN-β production in PBMC cultures. EC50 values and maximal IFN-β cytokine production (Cmax) were assessed from multiple donors.

naïve T cells = assay: IFN-β production in naïve T cells; assay type: cell-based, human
Text: (§1) Next, we characterized the effect of exoSTING for free CDN on naïve or TCR stimulated T cells. We purified T cells and treated them with a dose titration of exoSTING or free CDN and compared IFNβ production in the presence or absence of TCR stimulation. […] We next characterized induction of T cell death using Cytotox dye staining following exoSTING or free CDN2 treatment in T cells stimulated with anti-CD3 and anti-CD28. Following free CDN2 treatment, we observed a dose dependent increase in T cell death (up to ~20% of T cells) as measured by Cytotox dye staining (FIG. 17G). […] Importantly, exoSTING preserves the viability of TCR stimulated T cells.

[1] = system: CD8+ T cells and XCR1+ DCs in B16F10 tumors; assay: Flow cytometry of B16F10 tumors after two IT injections; assay type: in vivo, mice; settings: 20 μg, FIG. 15D
Protocol: FIG. 15 is a graphical representation of IFN-β positive area. FIG. 15C is a graphical representation of CD8 positive cells. FIGS. 15D-15E are graphical representations of the percentage of CD8 T cells in live CD45^+ cells in tumors (FIG. 15D) and CD86 expression on dendritic cells (FIG. 15E) as measured by flow cytometry after 2 doses of PBS, CDN2 (20 μg), and exoCDN2 (0.2 μg) into B16F10 tumors (n=5 per group). *, P<0.05; **, P<0.01; ****, P<0.0001 by one-way ANOVA with Tukey's multiple comparison test; n.s., non-significant.
We also assessed CD8^+ T cell and XCR1^+ DC activation after two IT injections of exoSTING and free CDN2 by flow cytometry. […] This increase in CD8^+ T cell is consistent with the increased CXCL9 and CXCL10 production following exoSTING treatment (FIGS. 14D and 14E). […] The enhanced activation of this DC subset seen with exoSTING but to a lesser degree with free CDN, is consistent with the observed superiority of anti-tumor activity of exoSTING in the B16F10 model (FIGS. 12 and 13).

B16F10 tumors = assay: Histology of injected B16F10 tumors (H&E, IFN-β mRNA, CD8, F4/80); assay type: in vivo; settings: free CDN2 20 μg, exoSTING 0.1 μg, 4 and 24 hours after two injections, FIG. 15A
Protocol: In order to distinguish the immune stimulatory versus immune ablative mechanisms of action between free CDN2 and exoSTING, we compared the effects of efficacious doses of free CDN2 (20 μg) or exoSTING (0.1 μg) after IT dosing in a therapeutic setting with the B16F10 model.

B16F10 tumor = assay: B16F10 subcutaneous tumor growth after intratumoral injection; assay type: in vivo, C57BL/6 mice; settings: 0.1 μg CDN2, IT, FIG. 12F
Protocol: C57BL/6 mice were implanted subcutaneously with 1×10^6 B16F10 cell on right flank of mice. Additional implantation of tumors is specified in each legend. When tumor volumes reached 50-100 mm^3, testing agents were injected intratumorally 3 times with 3 days interval. Red arrows in the graph indicate IT injection days. Tumor growth were measured over time. n=5 per group. […] RLU: Relative Luminescent Unit. ****, P<0.0001 by two-way ANOVA with Tukey's multiple comparison test for tumor growth studies. Data are presented as means±s.e.m. (FIGS. 12D-12F).
Data are presented as means±s.e.m. RLU: Relative Luminescent Unit. […]
We have previously identified and characterized exosome-specific surface glycoproteins using unbiased proteomic analysis and identified the immunoglobulin super family member PTGFRN as a protein that is enriched on human exosomes and contains nine predicted N-linked glycosylation sites (see Dooley et al., Cancer Res. 79(13 Suppl), Abstract nr 2150 (2019), which is incorporated by reference herein in its entirety). […] These populations of exosomes were next examined for their capacity activate STING pathway as measured by IFN-β production. […] EC50 values and maximal IFN-β cytokine production (Cmax) were assessed from multiple donors. […]

[2] = system: T cells stimulated with anti-CD3 and anti-CD28; assay type: cell-based, human; settings: FIG. 17G
Text: (§2) FIGS. 17F and 17G show representative dose-response curves of IFN-β production (FIG. 17F) and cytotoxicity (FIG. 17G) in stimulated T cells after treating with free CDN2 and exoCDN2. T cells were purified from human PBMCs and stimulated with anti-CD3/anti-CD28.
as §1

[3] = CDN in plasma / systemic circulation after IT injection, LC-MS/MS; assay type: in vivo, C57BL/6 mice
Protocol: (§3) C57BL/6 mice were implanted subcutaneously with 1×10^6 B16F10 cells. FIGS. 14A and […] are graphical representations showing the concentration of CDN2 in tumors (FIG. 14A) and plasma (FIG. 14B) as measured by LC-MS/MS at 5 minutes, 30 minutes, 2 hours, 6 hours, 24 hours, and 48 hours after single IT injection (n=3 per group at each time point) in C57BL/6 mice implanted subcutaneously with 1×10^6 B16F10 cells. FIGS. 14C-14E are graphs showing the relative expression of IFN-β (FIG. 14C), CXCL9 (FIG. 14D), and CXCL10 (FIG. 14E) genes as measured by RT-qPCR, normalized against the housekeeping gene RPS13. FIGS. 14F-14H are graphs showing serum levels of IFN-β (FIG. 14F), TNF-α (FIG. 14G), and IL-6 (FIG. 14H) (n=5 per group). Data are presented as means±s.e.m. *, P<0.05; **, P<0.01; ***, P<0.001; ****, P<0.0001 by one-way ANOVA with Tukey's multiple comparison test.
(§4) A major limitation of IT administration of free CDN is its rapid dissemination into the systemic circulation (see Sivick et al., Cell Rep. 25, 3074-3085.e5 (2018)). […] This reduces the effectiveness of the CDN to elicit a productive immune response in the tumor resulting in higher doses of free CDN required for efficacy. In B16F10 tumors after injection of exoSTING or free CDN, we measured the amount of CDN in tumors and blood over time.
Further, free CDN2 is cleared rapidly in the systemic circulation (106 mL/hr).

[4] = Pharmacokinetics of CDN in injected B16F10 tumors, LC-MS/MS; assay type: in vivo, C57BL/6 mice; settings: injected tumor
Protocol: as §3, §4

[5] = system: global gene expression in B16F10 tumors; assay: RNA sequencing of B16F10 tumors after 1 or 2 IT injections; assay type: in vivo, mice; settings: after 2 doses, exoSTING 0.1 μg, free CDN2 20 μg, FIG. 16E
Protocol: FIGS. 16A-16C are box plots showing the relative expression of IFN-β (FIG. 16A), CD274 (FIG. 16B), and CXCL9 (FIG. 16C) as measured by NanoString in RNA samples collected four hours after IT injection of PBS, CDN2 (0.1, 20, or 100 μg), and exoCDN2 (0.001, 0.01, or 0.1 μg) into B16F10 tumors. Data are presented as means±s.e.m. *, P<0.05; **, P<0.01; ***, P<0.001; ****, P<0.0001 by one-way ANOVA with Tukey's multiple comparison test. […] All genes were compared to PBS treatment. […] Adjusted P values are indicated.
To further characterize the immune pathway activation, we evaluated the global gene expression changes after 1 or 2 IT injections of efficacious doses of exoSTING (0.1 μg) and free CDN2 (20 μg) by RNA sequencing. All samples were compared to PBS treatment. […] Tcf7 (which encodes TCF1) is a key transcription factor expressed in the stem-like progenitor CD8^+ T cells (Siddiqui et al., Immunity. 50, 195-211.e10 (2019)). This cell subset is required for response to checkpoint inhibitor therapies. (Siddiqui, 2019). […] This loss may underlie the lack of immunological memory response to free CDN.
In contrast, high doses of free CDN decrease the expression of these key genes as well as reducing the expression of APC markers.

[6] = system: T cells stimulated by anti-CD3 and anti-CD28; assay: IFN-β production in T cells stimulated by anti-CD3 and anti-CD28; assay type: cell-based, human; settings: FIG. 17F
Text: as §2, §1

Structure (SMILES) | increase in the number of IFN-γ positive spots compared to PBS control (splenocytes; 0.2 μg) | IFN-γ positive spots compared to PBS control (splenocytes; 20 μg) | EC50 (human PBMC) [µM] | IFN-β production (naïve T cells) | number of viable CD8+ T cells compared PBS control [1] | tissue damage by H&E staining (B16F10 tumors) | tumor growth (B16F10 tumor) | T cell death by Cytotox dye staining (maximum, dose dependent) [2] | detection in the plasma at the 30-minute timepoint ([3]; 30 μg IT) | clearance in the systemic circulation ([3]; free CDN2 after IT injection (30 μg)) [mL/h] | AUC ([4]; 0.3 μg single IT) [ng·h/mL] | CL ([4]; 0.3 μg single IT) [mL/h] | Cmax ([4]; 0.3 μg single IT) | T1/2 ([4]; 0.3 μg single IT) [h] | AUC ([4]; 30 μg single IT) | CL ([4]; 30 μg single IT) [mL/h] | Cmax ([4]; 30 μg single IT) | T1/2 ([4]; 30 μg single IT) [h] | Tcf7 levels [5] | EC50 [6] [µM]
Nc1ncnc2c1ncn2[C@@H]1O[C@@H]2COP(O)(=S)O[C@@H]3C(O)[C@@H](COP(O)(=S)O[C@H]2[C@H]1O)O[C@H]3n1cnc2c(N)ncnc21 (some centres unmarked) [CDN1, ML RR-S2] | failed to induce IFN-γ positive spots | failed to induce IFN-γ positive spots |  |  |  |  |  |  |  |  |  |  |  |  |  |  |  |  |  | 
Nc1ncnc2c1ncn2[C@@H]1O[C@@H]2COP(O)(=S)O[C@H]3[C@@H](F)[C@H](n4cnc5c(=O)[nH]cnc54)O[C@@H]3COP(O)(=S)O[C@H]2[C@H]1F (some centres unmarked) [CDN2, cAIM(PS)2 Difluor (Rp/Sp)] |  |  | ~9.7 | no IFN-β production was observed | significantly decreased | significant evidence of tissue damage in the skin and tumor cell death | Neither free CDN2 (0.1 μg) or co-administered PTGFRN^+/+ exosomes mixed with free CDN2 (0.1 μg) resulted in measurable tumor growth inhibition | ~ 20 % of T cells | detectable in the plasma | 106 | 799 | 0.375 | 1,240 ng/mL | 0.620 | 97,300 ng · hr/mL | 0.308 | 13,800 ng/mL | 2.05 | decrease in Tcf7 levels | ~8.2

— patent US12728098B2, “Methods of producing extracellular vesicles” (LONZA SALES AG, priority 2019, dated 2026)
